# Assay results taken from PubChem BioAssay AID504345 (Broad Institute, 2011).
# Activity calls are given as the source filed them.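 The calls were made as follows: active = fitted curve climbs past 10% caspase activation, relative to the positive control, at or below the top valid tested dose; inactive = the rest, including activity in the opposite direction.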
# Tested on: MEF A1-2A-BIM cells, caspase 3/7 luminescence
# Assay: caspase activation in A1-2A-BIM fibroblasts – cell-based, MEF A1-2A-BIM, luminescence, dry powder, set 2, Bcl2-A1 inhibitor project, dose response (AID 504345)
# Conditions: not given
row,SMILES,AC10 [µM]
1,Cn1c(=O)c([N+](=O)[O-])c(-n2cnc3ccccc32)c2ccccc21,9.42
2,Cc1ccc(Sc2c([N+](=O)[O-])cnc3ccccc23)cc1,8.65
3,Cc1ccc(Sc2c([N+](=O)[O-])c(=O)n(C)c3ccccc23)cc1,4.06
4,Cn1c(=O)c([N+](=O)[O-])c(Cl)c2ccccc21,0.632

# Tested on: not listed separately
# Assay: as above
# Conditions: MEF A1-2A-BIM cells, caspase 3/7 luminescence; at 35 µM (top of the series)
row,SMILES,caspase activation
1,Cn1c(=O)c([N+](=O)[O-])c(Nc2ccc(Cl)cc2)c2ccccc21,-1.07% (inactive)
2,O=c1oc2ccccc2c(Sc2ccccc2)c1[N+](=O)[O-],-9.2% (inactive)
3,O=[N+]([O-])c1cnc2ccccc2c1Sc1ccccc1,-2.86% (inactive)
4,CCOC(=O)N1CCN(c2c([N+](=O)[O-])c(=O)n(C)c3ccccc23)CC1,-2.42% (inactive)
5,CN1C(=O)C(C)(C)N(Cc2ccccc2)c2ccccc21,0.119% (inactive)
6,CCSc1c([N+](=O)[O-])c(=O)oc2ccccc12,-6.49% (inactive)
7,Cc1ccc(Nc2c([N+](=O)[O-])c(=O)oc3ccccc23)cc1,1.97% (inactive)
8,C/C1=C/C(=O)O[C@@H]2C[C@@H](CC[C@H](C)/C=C\CC1)O[C@@](O)(C1CSC(=O)N1)C2 (stereo partly specified),9.53% (inactive)
9,O=c1oc2ccccc2c(Cl)c1[N+](=O)[O-],-8.87% (inactive)
10,CCOCCCNc1c([N+](=O)[O-])c(=O)n(C)c2ccccc12,2.29% (inactive)
11,O=c1oc2ccccc2c(Nc2cc(Cl)cc(Cl)c2)c1[N+](=O)[O-],-2.92% (inactive)
12,O=c1oc2ccccc2c(N2CCCCC2)c1[N+](=O)[O-],-1.93% (inactive)
13,Cc1ccc(Nc2c([N+](=O)[O-])c(=O)n(C)c3ccccc23)cc1,-2.07% (inactive)
14,Cc1ccc(Sc2c([N+](=O)[O-])c(=O)oc3ccccc23)cc1,-5.88% (inactive)
15,O=C(Oc1cccc(/C=N/Nc2nc(Nc3ccccc3)nc(N3CCOCC3)n2)c1)c1ccco1,6.44% (inactive)
16,Cc1ccc(Sc2cc(=O)n(C)c3ccccc23)cc1,-11.4% (inactive)
17,Cn1c(=O)c([N+](=O)[O-])c(Oc2ccccc2)c2ccccc21,4.18% (inactive)
